We go through four compounds from patent US9700545B2 (Salix Pharmaceuticals, Ltd, priority 2008, dated 2017).

Common to all, as to format: physicochemical
The nature of series [1]: Vapor stress / vapor diffusion stressing of amorphous materials, form by XRPD. The settings on record: methanol and tetrahydrofuran, both with water as antisolvent. As for the experimental part: (§1) Vapor stressing experiments were done on amorphous material from two preparations: lyophilization from p-dioxane:water 1:1 and crash precipitation from ethyl acetate with heptane. […] The majority of the stressed samples appeared as clear red solutions after 6 days. Those solutions were placed in vials of antisolvent for vapor diffusion. Dry and wet milling experiments were conducted on amorphous materials from the two preparations mentioned above. Amorphous materials were recovered from the dry milling experiments.

The nature of series [2]: Automated moisture sorption/desorption (MB / DVS). Conditions: for XRPD following DVS: line after DVS; for hygroscopicity: result in words; for form by XRPD after moisture sorption/desorption: sorption from 5% RH to 95% RH, desorption from 95% RH to 5% RH. As for the experimental part:
Based on the data, relative humidity stressing studies of the two amorphous materials at 40° C./75% RH are recommended. Moisture sorption/desorption data were collected on a VTI SGA-100 Vapor Sorption Analyzer. Sorption and desorption data were collected over a range of 5% to 95% relative humidity (RH) at 10% RH intervals under a nitrogen purge. Samples were not dried prior to analysis. Equilibrium criteria used for analysis were less than 0.0100% weight change in 5 minutes, with a maximum equilibration time of 3 hours if the weight criterion was not met. Data were not corrected for the initial moisture content of the samples. NaCl and PVP were used as calibration standards.

A short description of series [3]: Milling experiments on amorphous materials, form by XRPD. The settings on record: 10 min. at 30 Hz, scraped sides. As for the experimental part:
as §1
A solid sample of rifaximin was charged to a milling container with a milling ball. […] Solids were scraped from the sides of the vial after each interval.

Consider `CO[C@H]1/C=C/O[C@@]2(C)Oc3c(C)c(O)c4c(O)c(c5c(nc6cc(C)ccn65)c4c3C2=O)NC(=O)/C(C)=C\C=C\[C@H](C)[C@H](O)[C@@H](C)[C@@H](O)[C@@H](C)[C@H](OC(C)=O)[C@@H]1C` [Amorphous rifaximin], for which the “form obtained in vapor diffusion experiments” value in series [1] is reported as “Form β”. The “wt loss upon equilibration at 5% RH” value in series [2] (MB, Table 5, milled amorphous) is reported as 0.7% wt loss upon equilibration. For the same compound, the “XRPD following DVS” value in series [2] (Table 2, first sample block (lyophilization sample)) is reported as “no peaks, possibly amorphous”; in series [2] (Table 2, second sample block (crash precipitation sample)), “no peaks, possibly amorphous”. Besides, the “weight gain under 95% RH” value in series [2] (amorphous rifaximin made by milling, moisture balance) came out at 11.6%. Moreover, the hygroscopicity result in series [2] is “hygroscopic”. Moreover, the “form by XRPD after moisture sorption/desorption” value in series [2], in series [2] (listed as Amorphous) and in series [2] (listed as Rifaximin Amorphous) was “amorphous” each time.

Consider `CO[C@H]1/C=C/O[C@@]2(C)Oc3c(C)c(O)c4c(O)c(c5c(nc6cc(C)ccn65)c4c3C2=O)NC(=O)/C(C)=C\C=C\[C@H](C)[C@H](O)[C@@H](C)[C@@H](O)[C@@H](C)[C@H](OC(C)=O)[C@@H]1C` [crash amorphous rifaximin], for which the “XRPD Result after dry milling” value in series [3] is recorded as “amorphous”. Also, in series [2], the hygroscopicity result is “moderately hygroscopic” and the “form by XRPD after moisture sorption/desorption” value is given as “Crystallization was not observed”.

On to `CO[C@H]1/C=C/O[C@@]2(C)Oc3c(C)c(O)c4c(O)c(c5c(nc6cc(C)ccn65)c4c3C2=O)NC(=O)/C(C)=C\C=C\[C@H](C)[C@H](O)[C@@H](C)[C@@H](O)[C@@H](C)[C@H](OC(C)=O)[C@@H]1C` [lyophilized amorphous rifaximin], for which the “XRPD Result after dry milling” value in series [3] is reported as “amorphous”. In series [2], the hygroscopicity result is reported as “moderately hygroscopic” and the “form by XRPD after moisture sorption/desorption” value is given as “Crystallization was not observed”.

As to `CO[C@H]1/C=C/O[C@@]2(C)Oc3c(C)c(O)c4c(O)c(c5c(nc6cc(C)ccn65)c4c3C2=O)NC(=O)/C(C)=C\C=C\[C@H](C)[C@H](O)[C@@H](C)[C@@H](O)[C@@H](C)[C@H](OC(C)=O)[C@@H]1C` [α dry], in series [2], the “form by XRPD after moisture sorption/desorption” value was “α dry”.
